Test [1] concerns the target T1, COX-1 (Homo sapiens, UniProt P23219). Briefly: microsomal enzyme assay, percent inhibition at […] (marginal, […], at […]). The class given is biochemical. Further details: gene PTGS1; recombinant human COX-1, microsomes from transfected Sf9 cells.
Test [2] concerns the target T1, COX-1. Further details: gene PTGS1.
Test [3] has as its target T1, COX-1. Nature of the test: microsomal enzyme assay, percent inhibition at […] (only […] at […]). The class given is cell-free. Further details: gene PTGS1; recombinant human COX-1, microsomes from transfected Sf9 cells.

T1 sequence (P23219 24-599): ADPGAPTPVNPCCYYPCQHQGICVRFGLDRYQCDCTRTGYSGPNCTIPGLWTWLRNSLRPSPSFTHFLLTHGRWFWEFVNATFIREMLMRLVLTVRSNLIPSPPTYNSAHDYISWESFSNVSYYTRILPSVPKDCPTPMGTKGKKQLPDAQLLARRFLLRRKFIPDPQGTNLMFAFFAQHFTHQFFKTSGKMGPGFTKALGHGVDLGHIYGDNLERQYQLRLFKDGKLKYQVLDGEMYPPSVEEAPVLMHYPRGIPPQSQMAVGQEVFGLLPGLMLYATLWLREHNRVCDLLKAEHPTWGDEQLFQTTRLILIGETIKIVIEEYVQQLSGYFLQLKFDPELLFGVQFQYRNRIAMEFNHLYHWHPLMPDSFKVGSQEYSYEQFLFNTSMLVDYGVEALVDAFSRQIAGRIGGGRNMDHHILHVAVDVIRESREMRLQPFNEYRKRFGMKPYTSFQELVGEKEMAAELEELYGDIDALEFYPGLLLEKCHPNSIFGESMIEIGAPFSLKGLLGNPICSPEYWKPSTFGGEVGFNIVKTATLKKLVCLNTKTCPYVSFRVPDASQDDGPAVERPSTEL

By inhibition is commonly meant the relative decrease from the control value, in per cent. For `CC(C)(Oc1ccc(Cl)cc1)C(=O)O` [clofibric acid], the inhibition at 250 µM at COX-1 [1] was 14%.

As a reminder, the IC50 is the concentration that inhibits the measured activity by half. Low values mean greater potency in that assay, high ones weaker potency in that assay. Regarding `CC(C)(Oc1ccc(C(=O)c2ccc(Cl)cc2)cc1)C(=O)O` [fenofibric acid], the half-inhibitory concentration (IC50) against COX-1 [2] amounted to 950 µM. Take `Cc1ccc(C)c(OCCCC(C)(C)C(=O)O)c1` [gemfibrozil]: the inhibition at 250 µM on COX-1 [3] worked out at 18%.

These data come from article PMC4298667, “Chemical and protein structural basis for biological crosstalk between PPARα and COX enzymes” (Journal of Computer-Aided Molecular Design, 2014).
